The text below walks through data of patent US12115207B2, “Treatment of inflammation” (Ariel Scientific Innovations Ltd., priority 2019, dated 2024).

Bridges are numbered along the chain shown (N, C = ends).

The subject of assay [1] is serum cytokines. Put plainly: Serum cytokine array after sub-chronic treatment of submissive mice. In kind it is in vivo. The protocol:
Submissive mice are derivates from “Sabra” strain were maintained under a 12 h light/12 h dark cycle with Purina rodent chow (Envigo, Israel) and water provided ad libitum. The animals were housed five per cage. All procedures with animals were performed after review and approval by the Institutional Animal Care and Use Committee of Ariel University.
Blood samples of submissive mice treated with control, as well as 10 and 30 mg/kg of ALOS4 were collected by terminal bleeding from the heart and centrifuged at 14,000 rpm for 20 min. Serum was removed to a new tube and stored at −80° C. for future use. Mouse XL Cytokine Array Kit (Cat #ARYO28, R&D) was used to detect the cytokines in the serum of submissive mice according to the manufacturer's instructions. Serum from treatment groups (saline, 10 and 30 mg/kg ALOS4) was added to each membrane. Streptavidin-HRP and Chemi Reagent Mix were used to detect the antibodies bound to the membrane. The membranes were then exposed (Image Quant LAS4000 mini; GE Healthcare, Milwaukee, WI, USA) and analyzed using ImageQuant TL software (GE Healthcare).

The subject of assay [2] is interferon type I signaling. As to the kind of experiment: ISRE response, HT1080 ISRE mCherry reporter cells stimulated with Poly I:C. Format: cell-based. The following applies: pretreatment with 0.3 μM for 48 h, FIG. 1A, 1C. The protocol: (§1) HT1080 cells transfected with mCherry reporter under an ISRE (Interferon-Sensitive Response Element) promoter and HCT116 with Luc reporter under ISRE promoter were used. Raw 264.7 (undifferentiated murine macrophages) cell line was also used. The cells were cultured in appropriate media: Dulbecco's Modified Eagle Medium (DMEM) (Cat #41965-039, Gibco) with 4.5 g/l glucose and L-glutamine augmented with 10% FBS (Gibco, Grand Island, NY), 100 U/ml penicillin and 100 μg/ml streptomycin in a humidified atmosphere at 37° C. with 5% CO2.
HT1080 ISRE mCherry cells were plated in 6-well plates at 2×10^4 cells/well. […] Following the 48 hour incubation, 25 μg/well of Polyinosinic:polycytidylic acid (Poly I:C)—a chemical compound structurally similar to double-stranded RNA and acting via Toll Like Receptor-3 molecular pathway activation, was added for an additional 16 h incubation. After this second incubation, cells were subjected to fluorescent imaging followed by washing with 1×PBX, trypsinization and resuspension with 300 μl of 1×PBS. 200 μl of cell suspension were further loaded into 96-well black clear bottom plates. Strength of mCherry fluorescence signal was detected by an ELISA reader with multiple reads per well at 574Ex/610Em.

Assay [3] concerns crown-like structures (macrophages) in adipose tissue. As to the kind of experiment: Crown-like structures in adipose tissue (H&E histology) of submissive mice. Format: in vivo. The following applies: sub-chronic 10 and 30 mg/kg, H&E staining, FIG. 2C. The protocol: The adipose tissue of submissive mice treated with 10 and 30 mg/kg of ALOS4 were excised and fixed with 4% formalin overnight at 4° C., followed by dehydration and paraffin embedding (Cat #BN0763, Barnaor). Serial sections of 5 μm thickness were cut and placed on charged glass slides (LE-14035838925, Leica, Germany) and incubated for 1 h at 60° C. At least three slides from each adipose tissue sample with 300 μm distance between sections were collected for histological staining. Prior to Hematoxylin and Eosin (H&E), all sections were subjected to de-paraffinized and hydrated by decreasing concentrations of ethanol in deionized water.
De-paraffinized and hydrated slides were immersed in Meyer's Hematoxylin solution (Cat #HX68597049, MERCK) for 5 min, washed for 5 min with tap water, and then immersed in Eosin solution (Cat #HX6109259, MERCK) for 2 min, rehydrated and mounted with Entalain.
Macrophages were evaluated by a scoring system using light microscopy. A score of 1 is characterized by the absence of crown like structures in framed field, 10-20 crowns characterize the score of 2, a score of 3—20-30 crown like structures, a score of 4—30-40 crowns and a score of 5—abundant crowns (40-50).

The subject of assay [4] is interferon type I signaling. Put plainly: ISRE response, HCT116 ISRE Luc reporter cells stimulated with Poly I:C. Format: cell-based. The following applies: pretreatment with 0.3 μM for 48 h, FIG. 1B. The protocol: as §1
HCT116 ISRE Luc cells were plated in 96-well plates at 3×10^3 cells/well. The next day DMEM was replaced with DMEM containing 0.3 μM of ALOS4 or saline as control with/without PEI—transfection reagent, and cells continued to grow for 48 h. Following the 48 h incubation 1 μg/ml of Poly I:C was added for an additional 16 h incubation. After this second incubation the media was removed, 30 μl of Bright-Glo™ Luciferase Assay System (Promega, Cat #E2610) was added. Plate was read with plate reader on Luminescent parameters.

The test system of assay [5] is Raw267.4 cells. Put plainly: Nitric oxide level assay, LPS-induced macrophage differentiation. The following applies: FIG. 2D. Format: cell-based, mouse. The protocol: Ability of ALOS4 to affect macrophage differentiation to pro- and anti-inflammatory macrophages was evaluated on mouse monocyte macrophages (Raw267.4) using the nitric oxide level assay. Cells were plated at a density of 1×10^5 cells/ml in 12 well plates for 12 h, followed by treatment with LPS (200 ng/ml) and ALOS4 (0.3 and 30 μM). Nitric oxide production of monocyte differentiation to pro-inflammatory M1 was detected with Griess reaction kit (Cat #G2930, Promega) according to the protocol. The absorbance was read at 540 nm with ELISA plate reader (Tecan infinite M200pro, Switzerland) and nitric oxide concentration was calculated using the Nitrite Standard Reference Curve.

[6] abbreviates: 10 and 30 mg/kg i.v., every second day within 10 days, FIG. 2A.

As for “H-cycl (Cys-Ser-Ser-Ala-Gly-Ser-Leu-Phe-Cys)-OH (H-CSSAGSLFC-OH; disulfide 1-9 (inferred)) [ALOS4]”, in assay [1] (setting [6]), the IL-1α/IL-1F1 in blood result is given as “did not change” and the “total interleukins in blood as compared to the control group” value is listed as “downregulation”. In addition, the “pro-inflammatory markers (Jak-STAT signaling pathway) in serum” value in assay [1] (sub-chronic 10 and 30 mg/kg, FIG. 2B) is recorded as “strong tendency toward down-regulation”. In assay [2], the “ability of cells to induce interferon type I signaling in response to Poly I:C (mCherry fluorescence)” value is “suppressed”. Besides, the “frequency of crown-like structures in fat pads” value in assay [3] is listed as “a decrease in frequency was observed”. Further, the “ability of cells to induce interferon type I signaling in response to Poly I:C (luciferase)” value in assay [4] is listed as “suppressed”. In assay [5] (LPS-induced, one-way ANOVA p<0.01 and p<0.001), the “nitric oxide (indicator of differentiation to pro-inflammatory macrophages)” value is on record as “significant dose-dependent decrease”. The “differentiation of macrophages to pro-inflammatory M1” value in assay [5] (Raw267.4 cells, LPS 200 ng/ml, 0.3 and 30 μM for 24 hours) is given as “inhibited differentiation of the macrophages to pro-inflammatory M1 in a dose dependent manner”.
